Measurements: patent US7812170B2, “Insecticides” (Syngenta Crop Protection, Inc., priority 2004, dated 2010)

Assays:
Spodoptera littoralis = assay: Activity against Spodoptera littoralis (sprayed soya plants); assay type: in vivo; conditions: 72 h, 400 ppm active ingredient, sprayed young soya plants, 1st instar caterpillars, 3 days, read-out: percentage reduction in the population and in the feeding damage (% activity)
Description: (§1) Activity Against Spodoptera littoralis Young soya plants are sprayed with an aqueous emulsion spray mixture comprising 400 ppm of active ingredient and, after the spray coating has dried on, populated with 10 caterpillars (1st instar) of Spodoptera littoralis and introduced into a plastic container. 3 days later, the percentage reduction in the population and in the feeding damage (% activity) are determined by comparing the number of dead caterpillars and the feeding damage between the treated and untreated plants.

Plutella xylostella = assay: Activity against Plutella xylostella (sprayed cabbage plants); assay type: in vivo; conditions: 72 h, 400 ppm active ingredient, sprayed young cabbage plants, 3rd instar caterpillars, 3 days, read-out: percentage reduction in the population and in the feeding damage (% activity)
Description: as §1, with “Plutella xylostella” for “Spodoptera littoralis”, “cabbage” for “soya”, “(3rd” for “(1st”

Heliothis virescens = assay: Activity against Heliothis virescens (foliar application); assay type: in vivo; conditions: 144 h, 400 ppm active ingredient, sprayed young soya plants, 1st instar caterpillars, 6 days, read-out: percentage reduction in the population and in the feeding damage (% activity)
Description: as §1, with “Against Heliothis virescens (Foliar Application)” for “Against Spodoptera littoralis”, “of Heliothis virescens” for “of Spodoptera littoralis”, “container. 6” for “container. 3”

Diabrotica balteata = assay: Activity against Diabrotica balteata (sprayed maize seedlings); assay type: in vivo; conditions: 144 h, 400 ppm active ingredient, 2nd instar larvae, 6 days, read-out: percentage reduction in the population (% activity)
Description: Activity Against Diabrotica balteata Maize seedlings are sprayed with an aqueous emulsion spray mixture comprising 400 ppm of active ingredient and, after the spray coating has dried on, populated with 10 larvae (2nd instar) of Diabrotica balteata and introduced into a plastic container. 6 days later, the percentage reduction in the population (% activity) is determined by comparing the number of dead larvae between the treated and untreated plants.

Compound	melting point [°C]	inhibition at 400 ppm (Spodoptera littoralis) [%]	inhibition at 400 ppm (Plutella xylostella) [%]	inhibition at 400 ppm (Heliothis virescens) [%]	inhibition at 400 ppm (Diabrotica balteata) [%]
CNC(=O)c1cc2cc(Br)ccc2c(Br)c1NC(=O)c1cc(C(F)(F)F)nn1-c1ncccc1Cl [Compound T9.1]	–	> 80	> 80	> 80	–
CNC(=O)c1sc2cccc(Cl)c2c1NC(=O)c1cc(C(F)(F)F)nn1-c1ncccc1Cl [Compound T79.1]	–	–	> 80	> 80	–
CC(C)NC(=O)c1cc2cc(C#N)ccc2c(Cl)c1NC(=O)c1cc(C(F)(F)F)nn1-c1ncccc1Cl [Compound T5.3]	–	> 80	> 80	> 80	–
Cc1c(NC(=O)c2cc(C(F)(F)F)nn2-c2ncccc2Cl)c(C(=O)NC(C)C)nc2ccccc12 [Compound T75.3]	–	> 80	> 80	> 80	–
CC(C)NC(=O)c1cc2ccccc2c(Br)c1NC(=O)c1cc(C(F)(F)F)nn1-c1ncccc1Cl [Compound T7.3]	–	> 80	> 80	> 80	> 80
CNC(=O)c1cc2cc(Br)ccc2c(Cl)c1NC(=O)c1cc(C(F)(F)F)nn1-c1ncccc1Cl [Compound T2.1]	–	> 80	> 80	> 80	–
CNC(=O)c1nc2ccccc2c(C)c1NC(=O)c1cc(C(F)(F)F)nn1-c1ncccc1Cl [Compound T75.1]	–	> 80	> 80	> 80	–
CNC(=O)c1cc2ccccc2c([N+](=O)[O-])c1NC(=O)c1cc(C(F)(F)F)nn1-c1ncccc1Cl [Compound T78.1]	–	–	> 80	–	–
CNC(=O)c1c(NC(=O)c2cc(C(F)(F)F)nn2-c2ncccc2Cl)c(C)nc2ccccc12 [Compound T81.1]	–	–	> 80	> 80	–
CNC(=O)c1cc2cc(Cl)ccc2c(Cl)c1NC(=O)c1cc(C(F)(F)F)nn1-c1ncccc1Cl [Compound T20.1]	–	> 80	> 80	> 80	–
CNC(=O)c1cc2ccccc2c(C)c1NC(=O)c1cc(C(F)(F)F)nn1-c1ncccc1Cl [Compound T8.1]	–	> 80	> 80	> 80	–
CNC(=O)c1cc2c([N+](=O)[O-])cccc2c(Cl)c1NC(=O)c1cc(C(F)(F)F)nn1-c1ncccc1Cl [Compound T76.1]	–	> 80	> 80	> 80	–
CCNC(=O)c1cc2cc(Br)ccc2c(Br)c1NC(=O)c1cc(C(F)(F)F)nn1-c1ncccc1Cl [Compound T9.2]	–	> 80	> 80	> 80	–
CC(C)NC(=O)c1cc2cc(Br)ccc2c(Br)c1NC(=O)c1cc(C(F)(F)F)nn1-c1ncccc1Cl [Compound T9.3]	–	> 80	> 80	> 80	–
CC(C)NC(=O)c1cc(Cl)c2ccccc2c1NC(=O)c1cc(C(F)(F)F)nn1-c1ncccc1Cl [Compound T22.3]	–	–	> 80	–	–
CC(C)NC(=O)c1cc2cc(Cl)ccc2c(Cl)c1NC(=O)c1cc(C(F)(F)F)nn1-c1ncccc1Cl [Compound T20.3]	–	> 80	> 80	> 80	–
CCNC(=O)c1cc2cc(Br)ccc2c(Cl)c1NC(=O)c1cc(C(F)(F)F)nn1-c1ncccc1Cl [Compound T2.2]	–	> 80	> 80	> 80	–
CC(C)NC(=O)c1cc2ccccc2c(Cl)c1NC(=O)c1cc(C(F)(F)F)nn1-c1ncccc1Cl [Compound T1.3]	–	> 80	> 80	> 80	> 80
CNC(=O)c1cc2cc(C#N)ccc2c(Cl)c1NC(=O)c1cc(C(F)(F)F)nn1-c1ncccc1Cl [Compound T5.1]	–	> 80	> 80	> 80	–
CC(C)NC(=O)c1cc2c([N+](=O)[O-])cccc2c(Cl)c1NC(=O)c1cc(C(F)(F)F)nn1-c1ncccc1Cl [Compound T76.3]	–	> 80	> 80	> 80	–

Now from value to molecule, other results behind:

melting point [°C]	Compound	inhibition at 400 ppm (Spodoptera littoralis) [%]	inhibition at 400 ppm (Plutella xylostella) [%]	inhibition at 400 ppm (Heliothis virescens) [%]	inhibition at 400 ppm (Diabrotica balteata) [%]
264 to 266	CNC(=O)c1sc2nsc(C)c2c1NC(=O)c1cc(C(F)(F)F)nn1-c1ncccc1Cl [Compound T88.1]	–	–	–	–
274 to 276	CNC(=O)c1cc2c(c(Br)c1NC(=O)c1cc(C(F)(F)F)nn1-c1ncccc1Cl)OC(C)(C)O2	–	–	–	–
192 to 194	CC1c2ccccc2C[C@H](C(=O)NC2CC2)[C@@H]1NC(=O)c1cc(C(F)(F)F)nn1-c1ncccc1Cl (stereo partly drawn) [Compound T73.207]	–	–	–	–
269 to 270	CC(C)NC(=O)c1c(NC(=O)c2cc(C(F)(F)F)nn2-c2ncccc2Cl)nc2c(c1-c1ccccc1)CCCCC2 [Compound T52.3]	–	–	–	–
184 to 186	CSCC(C)(C)NC(=O)[C@H]1Cc2ccccc2C[C@H]1NC(=O)c1cc(C(F)(F)F)nn1-c1ncccc1Cl [Compound T72.273]	–	–	–	–
242 to 244	CNC(=O)c1cc2c(c(C)c1NC(=O)c1cc(C(F)(F)F)nn1-c1ncccc1Cl)OC(C)(C)O2	–	–	–	–
206 to 207	COC1CCc2c(sc(NC(=O)c3cc(C(F)(F)F)nn3-c3ncccc3Cl)c2C(=O)NC(C)C)C1 (stereo not drawn) [Compound T74.3]	–	–	–	–
246 to 248	CC(C)NC(=O)c1c(NC(=O)c2cc(C(F)(F)F)nn2-c2ncccc2Cl)sc2c1CCCC2 [Compound T46.3]	–	–	–	–
261 to 263	CNC(=O)c1c(NC(=O)c2cc(C(F)(F)F)nn2-c2ncccc2Cl)sc2c1CCCC2 [Compound T46.1]	–	–	–	–
145 to 147	CNC(=O)c1cc2c(nc1NC(=O)c1cc(C(F)(F)F)nn1-c1ncccc1Cl)CCCC2 [Compound T50.1]	–	–	–	–
226 to 228	CNC(=O)[C@H]1Cc2ccccc2C[C@H]1NC(=O)c1cc(C(F)(F)F)nn1-c1ncccc1Cl [Compound T72.1]	–	–	–	–
165 to 168	CNC(=O)c1c(NC(=O)c2cc(C(F)(F)F)nn2-c2ncccc2Cl)nc2c(c1-c1ccccc1)CCCC2 [Compound T51.1]	–	–	–	–
230 to 233	O=C(N[C@@H]1Cc2ccccc2C[C@@H]1C(=O)NC1CC1)c1cc(C(F)(F)F)nn1-c1ncccc1Cl [Compound T72.207]	–	–	–	–
259 to 260	CC(C)NC(=O)c1c(NC(=O)c2cc(C(F)(F)F)nn2-c2ncccc2Cl)nc2c(c1-c1cccc(Cl)c1)CCCC2 [Compound T53.3]	–	–	–	–
229 to 232	CC(C)NC(=O)[C@H]1Cc2ccccc2C[C@H]1NC(=O)c1cc(C(F)(F)F)nn1-c1ncccc1Cl [Compound T72.3]	–	–	–	–
146 to 148	CC(C)NC(=O)c1c(NC(=O)c2cc(C(F)(F)F)nn2-c2ncccc2Cl)nc2c(c1-c1ccccc1)CCCC2 [Compound T51.3]	–	–	–	–
205 to 207	CNC(=O)[C@H]1Cc2ccccc2C(C)[C@H]1NC(=O)c1cc(C(F)(F)F)nn1-c1ncccc1Cl (stereo partly drawn) [Compound T73.1]	–	–	–	–
143 to 145	CC(C)NC(=O)c1cc2c(nc1NC(=O)c1cc(C(F)(F)F)nn1-c1ncccc1Cl)CCCC2 [Compound T50.3]	–	–	–	–
133 to 135	CNC(=O)c1c(NC(=O)c2cc(C(F)(F)F)nn2-c2ncccc2Cl)sc2c1CCC(OC)C2 (stereo not drawn) [Compound T74.1]	–	–	–	–
256 to 258	Cc1c(NC(=O)c2cc(C(F)(F)F)nn2-c2ncccc2Cl)c(C(=O)NC(C)C)cc2c1OC(C)(C)O2	–	–	–	–
261 to 263	Cc1snc2sc(C(=O)NC(C)C)c(NC(=O)c3cc(C(F)(F)F)nn3-c3ncccc3Cl)c12 [Compound T88.3]	–	–	–	–
183 to 185	CNC(=O)c1c(NC(=O)c2cc(C(F)(F)F)nn2-c2ncccc2Cl)nc2c(c1-c1cccc(Cl)c1)CCCC2 [Compound T53.1]	–	–	–	–
223 to 225	CC(C)NC(=O)[C@H]1Cc2ccccc2C(C)[C@H]1NC(=O)c1cc(C(F)(F)F)nn1-c1ncccc1Cl (stereo partly drawn) [Compound T73.3]	–	–	–	–
211 to 213	CNC(=O)c1c(NC(=O)c2cc(C(F)(F)F)nn2-c2ncccc2Cl)nc2c(c1-c1ccccc1)CCCCC2 [Compound T52.1]	–	–	–	–
265 to 267	CNC(=O)c1cc2c(c(Cl)c1NC(=O)c1cc(C(F)(F)F)nn1-c1ncccc1Cl)OC(F)(F)O2	–	–	–	–
